From patent US20240009234A1, “SYNTHETIC OLIGOMERIZATION SYSTEMS FOR CELL ENGINEERING AND THERAPY” (The Board of Trustees of the Leland Stanford Junior …, priority 2020, published 2024)

Columns and labels:
Settings in all cases: 8-24 hr
[1] = test system: nanobody-fused chimeric transmembrane receptor polypeptide (Nb-TLR5); test: NFκβ activity of Nb-TLR5 receptor-engineered Jurkat-NFκβ-GFP reporter cells; assay type: cell-based
Protocol: (§1) In each of the following examples, standard molecular cloning techniques were performed to assemble nucleic acid sequences encoding components of chimeric transmembrane receptor polypeptides onto plasmid backbones. Plasmids were transfected into HEK293T cells to create lentivirus. Lentivirus was transduced into all cell lines to create receptor engineered cells. Presence of the receptor was determined by a fluorescent reporter. Receptor engineered Jurkat cells or Jurkat-NFκβ-GFP and/or Jurkat-NFAT-GFP reporter cells were treated with activator for 8-24 hr. Receptor activity was measured by antibody staining or GFP expression via flow cytometry.
The receptor ECD was also expanded beyond endogenous proteins to engineered nanobodies that bind to small molecules. For example, FIG. 8 presents results for a nanobody-fused chimeric transmembrane receptor polypeptide (Nb-TLR5) engineered and activated by treatment with the asymmetric monomeric small molecule, caffeine. The graph of FIG. 8 plots NFκβ activity for receptor-engineered Jurkat-NFκβ-GFP reporter cells treated with or without caffeine activator for 8-24 hr.

[2] = test system: truncated FKBP-TLR5 receptors; test: NFκβ activity of Jurkat-NFκβ-GFP reporter cells with truncated FKBP-TLR5 receptor constructs; assay type: cell-based, human
Chain of truncated FKBP-TLR5 receptors (P62942 2-108 F37V limits assumed): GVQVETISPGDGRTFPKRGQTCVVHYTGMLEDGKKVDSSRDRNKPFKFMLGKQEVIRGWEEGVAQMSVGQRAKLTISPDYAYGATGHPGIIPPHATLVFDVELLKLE
Protocol: as §1
To determine where to truncate the TLR5 ECD such that the binding domain could be redirected to expand the soluble factor repertoire, the ECD was also methodically truncated at specific locations prior to fusing to FKBP. […] The graph of FIG. 3 plots the Nκβ activity for Jurkat-NFKκβ-GFP reporter cells engineered with or without truncated receptor constructs and treated with AP20187 activator for 8-24 hr. The graph of FIG. 4 plots the NFκβ activity for Jurkat-NFκβ-GFP reporter cells engineered with or without truncated receptor constructs and treated with Flagellin activator for 8-24 hr. […]

[3] = test system: FKBP-TLR5/FRB-TLR5 model receptor system; test: NFκβ activity of FKBP-TLR5/FRB-TLR5 heterodimerization system in Jurkat-NFκβ-GFP reporter cells; assay type: cell-based, human
Protocol: as §1
The receptor was further modified to activate upon heterodimerization (A/B system) by dimerizing two different receptor constructs. FKBP heterodimerizes with FKBP-rapamycin-binding (FRB, protein fragment of human mTOR) with the addition of AP21967 (protein-protein interaction inducing macrocyclic small molecule), and an FKBP-TLR5/FRB-TLR5 model receptor system was engineered and activated with AP21967.

Cn1c(=O)c2c(ncn2C)n(C)c1=O [caffeine]
NFκβ activity (FIG. 8) [1]: activated

flagellin
receptor activation, NFκβ activity (FIGS. 3-5) [2]: not

CO[C@H]1[C@@H](O)[C@H](C)C[C@H](C)/C=C/C=C/C=C(\C)[C@@H](c2c[nH]c3c(C)cccc23)C[C@@H]2CC[C@@H](C)[C@@](O)(O2)C(=O)C(=O)N2CCCC[C@H]2C(=O)O[C@H]([C@H](C)C[C@@H]2CC[C@@H](O)[C@H](OC)C2)C[C@H](O)[C@H](C)/C=C(\C)[C@H]1O [AP21967]
NFκβ activity (FIG. 7) [3]: intramembrane signal pathway activation
